# Reference: patent US7943139B2, “Methods of generating a humoral immune response against human immunodeficiency virus (HIV) comprising administering Nef apoptotic motif-containing polypeptide-conjugates” (priority 2004, dated 2011)
# Where no end group is shown, it is not given here.
# Assays:
# [1] = test system: Jurkat cell cultures; test: Nef peptide apoptosis screen (TUNEL); format: cell-based; settings: 24 hours; for apoptosis induced by Nef 20 mer peptides: 10 ng/ml
# Procedure: Apoptosis generates DNA free ends which can be labeled in situ using terminal deoxynucleotidyl-transferase (TdT), incorporating an exogenously added labeled nucleotide to the DNA strand. This label can then be visualized directly by fluorescence or indirectly using anti-FITC-peroxidase, and a calorimetric assay. Cells on coverslips were washed with PBS, and fixed for 30 minutes at RT with 4% paraformaldehyde, in PBS, pH 7.4. They were then washed with PBS, and permeabilized with 0.1% Triton X-100 for 10 minutes at room temperature (RT). The slides were rinsed twice with PBS, and air dried for 2 minutes. Then, we followed precisely the manufacturers procedure for TUNEL staining the slides (manufacturer's procedure for the In Situ Cell Death Detection Kit, AP; Boehringer Mannheim, Indianapolis, Ind.). Total cell counts were determined by counterstaining fixed cultures with 20 μg/ml of Hoechst 33258. All specimens were observed by epifluorescence on a computer-controlled microscope system based on a Zeiss Axioskop microscope (Carl Zeiss, Thornwood, N.Y.), and the images were obtained and examined using a charged coupled device (CCD) camera, MagnaFire, model S99806 (Olympus American, Melville, N.Y.). Images were examined using Image-Pro Plus 4.1 for Windows (Media Cybernetics, Silver Springs, Md.) software.
# Nef peptides retain much of the binding and signaling activity of the full molecule. A set of 20 mer peptides with 10 aa overlaps, spanning the Nef protein (205 aa), were obtained from the AIDS Reagent Program. Jurkat cell cultures were exposed to each of the Nef peptides at 10 ng/ml for 24 hours, and screened for apoptosis. One peak of apoptosis was observed spanning peptide aa31-50 to […], peaking at aa41-60 and aa51-70. […] Two regions of the Nef protein that induce apoptosis were identified; (1) a major apoptotic peak centering on aa50-60 (motif 1); (2) a minor peak centering on aa170-180 (motif 2). (aa sequence from HIV-1B clade NL403, Ass. No. AF070521) To determine the specificity of the apoptotic motifs, two 11 mer peptides spanning motif 1, were made, one with the correctly ordered sequence (Nef Motif 1-[…]) (Seq. ID No. 17), and the other with the correct amino acids scrambled in random order (Nef scMotif 1-[…]) (Seq. ID No. 18). Jurkat cell cultures were exposed to each of the two peptides at 8 ng/ml for 24 hours, and screened for apoptosis by TUNEL assay. Nef Motif 1 peptide induced 82% of the apoptosis observed using the full Nef protein. […] Thus, (a) Nef aa50-60 is sufficient to bind and induce an apoptotic signal; (b) induction of apoptosis is primary sequence specific. In some of the studies disclosed herein the Nef Motif 1 having an extra acid, namely […] (Seq. ID No. 19) was administered. In this report, Seq. ID No. 17 and Seq. ID No. 19 are both referred to as M-1 or Nef Motif-1 peptide.
# [2] = test system: thymus; test: Mouse thymus apoptosis after ip peptide for one month; format: in vivo, mice; settings: ip injection for one month
# Procedure: Nef motif 1 was administered to mice for one month by ip injection with either Nef motif 1 (Seq. ID No. 19), the 11 mer sequence or the scrambled apoptotic sequence Seq. ID No. 18. […] This provides further indication of the ability of the Nef protein to inhibit immune response related to CD4+ peripheral blood lymphocytes.
# [3] = molecular target: T1, CXCR4 receptor (Homo sapiens, UniProt P61073); test: Fluorescent binding assay with Flc labeled M1 peptide on transfected MDA-MB-468 cells
# T1 construct: transiently transfected with a CXCR4 cDNA clone; expressed in transfected cells; host or cells: MDA-MB-468 (human breast tumour line, lacks endogenous CXCR4), transient transfection
# T1 sequence (P61073 whole entry): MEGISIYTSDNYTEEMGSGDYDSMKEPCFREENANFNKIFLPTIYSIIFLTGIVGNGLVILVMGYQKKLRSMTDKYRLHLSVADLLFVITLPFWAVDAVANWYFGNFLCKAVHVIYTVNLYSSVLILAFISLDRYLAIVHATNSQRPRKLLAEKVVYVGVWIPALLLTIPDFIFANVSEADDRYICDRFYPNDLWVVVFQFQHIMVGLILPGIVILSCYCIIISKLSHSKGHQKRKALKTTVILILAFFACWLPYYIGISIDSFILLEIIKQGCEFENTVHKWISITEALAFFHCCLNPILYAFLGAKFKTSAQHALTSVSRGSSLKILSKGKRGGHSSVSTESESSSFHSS
# Procedure: Specific physical binding to CXCR4 was assayed. The above transfection experiment (MDA-MB-468 cultures either untransfected, or transiently transfected with a CXCR4 cDNA clone, empty vector, or CCR5 cDNA clone) was assayed in the fluorescent binding assay with the Flc labeled M1 peptide.
# [4] = test system: peripheral lymphocytes; test: KLH-M1 pre-immunization and Nef peptide challenge: PBL depletion and humoral response; format: in vivo, mice
# Procedure: Nef Motif 1 peptides linked to keyhole limpet […] (KLH) were administered to 9 mice. Subsequently, the pre-immunized mice and the naive mice were either unchallenged or challenged with Nef peptide for a month. The mice were sacrificed and the PBLs collected.
substance,measurement,setting,value
"ALAETCQNAWA [Nef scMotif 1, Motif 1 amino acids scrambled in random order, reference compound]",apoptosis (TUNEL),"[1]; 8 ng/ml, compared with untreated control",only background levels of apoptosis
same,apoptosis in the thymus,[2],No apoptosis
"Flc-M1 peptide: Flc labeled M1 peptide used in the fluorescent binding assay (NAACAWLEAQ; also: Flc label, place not given here)",binding of the Flc-M1 peptide,[3]; MDA-MB-468 cells transiently transfected with CCR5 cDNA,refractory to binding
same,binding of the Flc-M1 peptide,[3]; MDA-MB-468 cells transiently transfected with empty vector,refractory to binding
same,binding of the Flc-M1 peptide,[3]; MDA-MB-468 cells transiently transfected with the CXCR4 clone,significant binding
same,binding of the Flc-M1 peptide,[3]; untransfected MDA-MB-468 cells,refractory to binding
"NAACAWLEAQ [Nef Motif 1, Peptide spanning apoptotic motif 1 (aa50-60) of HIV-1 Nef]",apoptosis relative to that observed using the full Nef protein,"[1]; 8 ng/ml, TUNEL",82%
same,peripheral lymphocyte depletion,"[4]; mice challenged with Nef peptide for a month, PBLs collected",induced peripheral lymphocyte depletion
same,protective humoral response against the Nef epitope,"[4]; mice, naive or pre-immunized",did not stimulate a resultant protective humoral response
TNAACAWLEAQ [Nef motif 1 (Seq. ID No. 19)],apoptosis in the thymus,[2],Significant apoptosis
"aa41-60: Nef 20 mer overlapping peptide, residues 41-60, AIDS Reagent Program (GAITSSNTAATNAACAWLEA; UniProt P04601 41-60, looked up, fragment)",apoptosis induced by Nef 20 mer peptides,[1],peaking
"aa51-70: Nef 20 mer overlapping peptide, residues 51-70, AIDS Reagent Program",apoptosis induced by Nef 20 mer peptides,[1],peaking
"aa161-180: Nef 20 mer overlapping peptide, residues 161-180, AIDS Reagent Program (NTSLLHPVSLHGMDDPEREV; UniProt P04601 161-180, looked up, fragment)",apoptosis induced by Nef 20 mer peptides,[1],"second, smaller apoptotic peak"
"aa171-190: Nef 20 mer overlapping peptide, residues 171-190, AIDS Reagent Program (HGMDDPEREVLEWRFDSRLA; UniProt P04601 171-190, looked up, fragment)",apoptosis induced by Nef 20 mer peptides,[1],"second, smaller apoptotic peak"
